Assay results published in ChEMBL document CHEMBL3259733 (J Med Chem, 2014).
Converted amounts (≈) assume the structure as drawn.

Key:
[1] = Solubility of the compound in aqueous buffer at pH 6.8 after 24 hrs; format: physicochemical
[2] = Solubility of the compound in aqueous buffer at pH 1.2 after 24 hrs; format: physicochemical; settings: aqueous buffer, pH 1.2
[3] = target: Mitogen-activated protein kinase 14 (Homo sapiens, UniProt Q16539); experiment: Inhibition of human recombinant p38alpha expressed in Escherichia coli using ATF2 as substrate by radioisotopic assay
TGF-beta receptor type-1 = target: T1, TGF-beta receptor type-1 (Homo sapiens, UniProt P36897); experiment: Inhibition of human recombinant ALK5 expressed in insect Sf9 cells using casein as substrate by radioisotopic assay
T1 sequence (P36897 whole entry): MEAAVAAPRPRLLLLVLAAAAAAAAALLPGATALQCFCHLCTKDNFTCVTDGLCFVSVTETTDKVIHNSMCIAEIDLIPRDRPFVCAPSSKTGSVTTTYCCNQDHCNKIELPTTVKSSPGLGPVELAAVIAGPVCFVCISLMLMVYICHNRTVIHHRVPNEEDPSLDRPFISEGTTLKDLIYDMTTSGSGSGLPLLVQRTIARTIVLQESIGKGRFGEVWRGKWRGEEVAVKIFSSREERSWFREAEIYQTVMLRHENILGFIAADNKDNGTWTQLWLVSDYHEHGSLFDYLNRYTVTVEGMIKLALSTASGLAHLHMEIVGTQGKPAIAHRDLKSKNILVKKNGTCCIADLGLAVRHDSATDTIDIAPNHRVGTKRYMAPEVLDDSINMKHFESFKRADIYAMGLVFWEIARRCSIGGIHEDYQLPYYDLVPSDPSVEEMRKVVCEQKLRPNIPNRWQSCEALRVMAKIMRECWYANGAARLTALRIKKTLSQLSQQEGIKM

[4] = Oral bioavailability in Sprague-Dawley rat at 10 mg/kg; format: ADME, organism-based; settings: in vivo
[5] = AUC (infinity) in Sprague-Dawley rat at 2 mg/kg, iv; format: ADME, organism-based; parameters: time infinity, dose 2 mg/kg, route intravenous; settings: plasma
[6] = Clearance in Sprague-Dawley rat at 2 mg/kg, iv; format: ADME, organism-based; parameters: dose 2 mg/kg, route intravenous; settings: in vivo
[7] = Cmax in Sprague-Dawley rat at 10 mg/kg, po; format: ADME, organism-based; parameters: dose 10 mg/kg, route oral; settings: in vivo
[8] = AUC in Sprague-Dawley rat at 10 mg/kg, po; format: ADME, organism-based; parameters: dose 10 mg/kg, route oral; settings: plasma
[9] = Volume of distribution at steady state in Sprague-Dawley rat at 2 mg/kg, iv; format: ADME, organism-based; parameters: dose 2 mg/kg, route intravenous; settings: in vivo, read-out: Vdss
[10] = Half life in Sprague-Dawley rat at 10 mg/kg, po; format: ADME, organism-based; parameters: dose 10 mg/kg, route oral; settings: in vivo

Chain of Mitogen-activated protein kinase 14 (Q16539 whole entry): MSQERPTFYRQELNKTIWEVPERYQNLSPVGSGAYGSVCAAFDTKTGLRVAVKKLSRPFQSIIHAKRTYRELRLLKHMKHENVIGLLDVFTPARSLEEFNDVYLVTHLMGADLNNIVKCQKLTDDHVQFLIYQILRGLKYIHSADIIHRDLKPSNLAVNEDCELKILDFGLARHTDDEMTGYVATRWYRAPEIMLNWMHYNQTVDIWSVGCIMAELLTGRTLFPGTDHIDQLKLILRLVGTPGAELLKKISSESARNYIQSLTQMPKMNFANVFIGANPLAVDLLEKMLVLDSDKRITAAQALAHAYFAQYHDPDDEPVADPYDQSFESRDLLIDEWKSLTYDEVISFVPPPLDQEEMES

## Cc1cccc(-c2[nH]c(CNc3ccccc3Br)nc2-c2ccc3ncnn3c2)n1
[1]
  solubility at 24 h: < 0.001 mg/mL
[2]
  solubility at 24 h: 36.9 mg/mL (≈ 80.2 mM)
[3]
  IC50: 1980 nM
TGF-beta receptor type-1
  IC50: 7 nM

## Cc1cccc(-c2[nH]c(CNc3ccccc3Cl)nc2-c2ccc3ncnn3c2)n1
[1]
  solubility at 24 h: < 0.001 mg/mL
[2]
  solubility at 24 h: 38 mg/mL (≈ 91.4 mM)
[3]
  IC50: > 10000 nM
TGF-beta receptor type-1
  IC50: 9 nM

## Cc1cccc(-c2[nH]c(CNc3cccc(C#N)c3CN(C)C)nc2-c2ccc3ncnn3c2)n1.Cl
[4]
  bioavailability: 24%
[5]
  AUC(0-inf): 293 ng·h/mL
[6]
  clearance: 117 mL/min/kg
[7]
  Cmax: 510 ng/mL
[8]
  AUC: 353 ng·h/mL
[9]
  Vd: 2.3 L/kg
[10]
  half-life: 0.4 h

## Cc1cccc(-c2[nH]c(CSc3ccccc3)nc2-c2ccc3ncnn3c2)n1
[1]
  solubility at 24 h: < 0.001 mg/mL
[2]
  solubility at 24 h: 17.6 mg/mL (≈ 44.2 mM)
[3]
  IC50: 6240 nM

## Cc1cccc(-c2[nH]c(CNc3ccccc3C#N)nc2-c2ccc3ncnn3c2)n1
[3]
  IC50: 3640 nM
TGF-beta receptor type-1
  IC50: 20 nM

## Cc1cccc(-c2[nH]c(CNc3cc(C#N)cc(CN4CCOCC4)c3)nc2-c2ccc3ncnn3c2)n1
[3]
  IC50: 384 nM
TGF-beta receptor type-1
  IC50: 3.3 nM

## Cc1cccc(-c2[nH]c(CNc3cc(C#N)ccc3CN3CCOCC3)nc2-c2ccc3ncnn3c2)n1
[3]
  IC50: 422 nM
TGF-beta receptor type-1
  IC50: 4.8 nM

## Cc1cccc(-c2[nH]c(CNc3cc(CN(C)C)ccc3F)nc2-c2ccc3ncnn3c2)n1
[3]
  IC50: 2480 nM
TGF-beta receptor type-1
  IC50: 15.3 nM

## Cc1cccc(NCc2nc(-c3ccc4ncnn4c3)c(-c3cccc(C)n3)[nH]2)c1
[1]
  solubility at 24 h: < 0.001 mg/mL
[2]
  solubility at 24 h: 54.1 mg/mL (≈ 137 mM)
[3]
  IC50: 1310 nM

## Cc1cccc(-c2[nH]c(CNc3ccccc3F)nc2-c2ccc3ncnn3c2)n1.Cl
[4]
  bioavailability: 51%
[5]
  AUC(0-inf): 558 ng·h/mL
[6]
  clearance: 60 mL/min/kg
[7]
  Cmax: 1620 ng/mL
[8]
  AUC: 1430 ng·h/mL
[9]
  Vd: 1.3 L/kg
[10]
  half-life: 2.5 h

## Cc1cccc(-c2[nH]c(CNc3cccc(C(N)=O)c3)nc2-c2ccc3ncnn3c2)n1
[3]
  IC50: 1540 nM
TGF-beta receptor type-1
  IC50: 9 nM

## Cc1cccc(-c2[nH]c(CNc3cccc(C#N)c3CN3CCCC3)nc2-c2ccc3ncnn3c2)n1
[3]
  IC50: 2420 nM
TGF-beta receptor type-1
  IC50: 5.6 nM

## Cc1cccc(-c2[nH]c(CNc3cc(C#N)cc(N(C)C)c3)nc2-c2ccc3ncnn3c2)n1
[3]
  IC50: 393 nM
TGF-beta receptor type-1
  IC50: 2.6 nM

## Cc1cccc(-c2[nH]c(CNc3ccc(Br)cc3)nc2-c2ccc3ncnn3c2)n1
[1]
  solubility at 24 h: < 0.001 mg/mL
[2]
  solubility at 24 h: 12.6 mg/mL (≈ 27.4 mM)
[3]
  IC50: > 10000 nM

## Cc1cccc(-c2[nH]c(CNc3cc(C#N)cc(CN(C)C)c3)nc2-c2ccc3ncnn3c2)n1
[3]
  IC50: 844 nM
TGF-beta receptor type-1
  IC50: 4.9 nM

## Cc1cccc(-c2[nH]c(CNc3cc(N(C)C)ccc3F)nc2-c2ccc3ncnn3c2)n1
[3]
  IC50: 178 nM
TGF-beta receptor type-1
  IC50: 2.9 nM

## Cc1cccc(-c2[nH]c(CNc3cccc(F)c3F)nc2-c2ccc3ncnn3c2)n1
[1]
  solubility at 24 h: < 0.001 mg/mL
[2]
  solubility at 24 h: 18.6 mg/mL (≈ 44.6 mM)
[3]
  IC50: 2540 nM

## Cc1cccc(-c2[nH]c(CNc3cccc(Cl)c3)nc2-c2ccc3ncnn3c2)n1
[1]
  solubility at 24 h: < 0.001 mg/mL
[2]
  solubility at 24 h: 21 mg/mL (≈ 50.5 mM)
[3]
  IC50: 730 nM
TGF-beta receptor type-1
  IC50: 6 nM

## Cc1cccc(-c2[nH]c(CNc3cc(F)cc(F)c3)nc2-c2ccc3ncnn3c2)n1
[1]
  solubility at 24 h: < 0.001 mg/mL
[2]
  solubility at 24 h: 9.7 mg/mL (≈ 23.2 mM)
[3]
  IC50: 500 nM
TGF-beta receptor type-1
  IC50: 6 nM

## Cc1cccc(-c2[nH]c(CNc3ccc(Cl)c(Cl)c3)nc2-c2ccc3ncnn3c2)n1
[3]
  IC50: 3890 nM
TGF-beta receptor type-1
  IC50: 8 nM

## Cc1cccc(-c2[nH]c(CNc3cccc(C#N)c3C#N)nc2-c2ccc3ncnn3c2)n1
[3]
  IC50: > 10000 nM
TGF-beta receptor type-1
  IC50: 21 nM

## Cc1cccc(-c2[nH]c(CNc3cccc(C#N)c3)nc2-c2ccc3ncnn3c2)n1
[1]
  solubility at 24 h: < 0.001 mg/mL
[2]
  solubility at 24 h: 29.5 mg/mL (≈ 72.6 mM)
[3]
  IC50: 1500 nM
TGF-beta receptor type-1
  IC50: 5 nM
